Tested on: liver cells
Assay: Distribution ratio into fractions and efflux scoring of a fluorescent drug in cultured liver cells (Steps 0-6, plate reader)
Format: in vitro ADME, rat
Method: In this step, liver cells are prepared and cultured for verifying an effect of a drug. An example will be shown below. The preparation of liver cells was made according to an in-situ collagenase perfusion method. The detail is as follows. A rat (5 to 6 weeks old) is subjected to laparotomy under pentobarbital anesthesia, and a catheter is inserted into the portal vein and a pre-perfusion fluid (Hanks' solution not containing Ca2+ and Mg2+ but containing EGTA) is injected.
Liver cells prepared by the in-situ collagenase perfusion method as described above are suspended in a medium, and the liver cells in the suspension at a density of 5×10^5 cells/mL are seeded on a commercially available collagen-coated culture dish, to conduct two dimensional plane culture (for example, sandwich culture). The seeding density, medium, culture plate 001 are not particularly limited.
After seeding, culture is started using a CO2 incubator under conditions of 5% CO2 and 37° C. After 18 hours or more elapse, a first medium exchange is performed. Although a medium used for culture from 18 hours after the seeding is not particularly limited, in this example, a medium obtained by excluding FCS from a medium (10% FCS+) to make a medium (herein after medium (FCS−)) and then adding matrigel thereto was used. After that, medium exchange is performed with the medium (FCS−) every 24 hours.
In this step, cells cultured in Step 0 are conditioned to a condition suitable for a drug assessment. An example will be shown below. The culture supernatant of cells cultured for 4 days in Step 0 is removed, […] of a Hanks' solution is added as a buffer, and then incubation is performed at 37° C. for 10 minutes (FIG. 2, Step 1).
In this step, a drug solution to be assessed is administered to cells. An example will be shown below. After removing the buffer, 200 μL of 10 μM CDF (fluorescent reagent) is added to a well, incubation is performed at 37° C. for 30 minutes, the well is then retained at 4° C. for 5 minutes (FIG. 2, Step 2). […]

[1] = Pattern 1, drug incubated 37° C. 30 minutes, fluorescence measurement

## Rhodamine 123
[1]
  ratio of the bile duct excretion drug amount relative to the whole drug amount taken in the cells (BiRD), (B1-B2)/(C1+C2): 4.92
  ratio of the drug amount discharged via a transporter relative to the blood-vessel-side discharge drug amount (RexEMTP), (B2-B3)/B2: 52.52
Pattern 2: total sum of Steps 4, 5 and 6 taken as 100%, Step 4 Hanks' solution 37° C. 30 minutes, in %
  sup fraction (first blood-vessel-side discharge fraction, S1): 39.29
